Measured values as given in ChEMBL document CHEMBL1201862, “PubChem BioAssay data set” (2004).
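Exposure lasted 48 hours, with cells grown in 96-well plates and compounds tested at five concentrations. GI50: concentration for 50% inhibition of growth.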 Calls of active or inactive are those of the source. No stated cut-off is given here; in the data, active = GI50 up to about 1.1 µM and inactive = higher.

Tests used:
Experiment in all cases: NCI-60 cell line screen, 48 h
786-0 = system: 786-0
DU-145 = system: DU-145
HCC 2998 = system: HCC 2998
HCT-116 = system: HCT-116
HOP-92 = system: HOP-92
Hs-578T = system: Hs-578T
K562 = system: K562
M14 = system: M14
MOLT-4 = system: MOLT-4
NCI-H23 = system: NCI-H23
NCI/ADR-RES = system: NCI/ADR-RES
RXF 393 = system: RXF 393
SK-MEL-28 = system: SK-MEL-28
SK-MEL-5 = system: SK-MEL-5
SNB-19 = system: SNB-19
SNB-75 = system: SNB-75
SW-620 = system: SW-620
TK-10 = system: TK-10
U-251 = system: U-251
UO-31 = system: UO-31

Row | SMILES | GI50 (786-0) | GI50 (DU-145) | GI50 (HCC 2998) | GI50 (HCT-116) | GI50 (HOP-92) | GI50 (Hs-578T) | GI50 (K562) | GI50 (M14) | GI50 (MOLT-4) | GI50 (NCI-H23) | GI50 (NCI/ADR-RES) | GI50 (RXF 393) | GI50 (SK-MEL-28) | GI50 (SK-MEL-5) | GI50 (SNB-19) | GI50 (SNB-75) | GI50 (SW-620) | GI50 (TK-10) | GI50 (U-251) | GI50 (UO-31)
1 | CC(=O)NC(CS/N=N/c1[nH]cnc1C(N)=O)C(=O)O (stereo not given) | 13 µM (inactive) | 1.78 µM (inactive) | 4.41 µM (inactive) | 5.5 µM (inactive) | 6.93 µM (inactive) | 16.2 µM (inactive) | 0.791 µM (active) | 2.59 µM (inactive) | 3.38 µM (inactive) | 38.9 µM (inactive) | 3.04 µM (inactive) | > 100 µM (inactive) | > 100 µM (inactive) | 27 µM (inactive) | > 100 µM (inactive) | 16.9 µM (inactive) | 6.15 µM (inactive) | 1.75 µM (inactive) | > 64.9 µM (inactive) | 2.82 µM (inactive)
2 | CO[C@H]1[C@@H](O)[C@@H](O)O[C@@H](O[C@H]2CC[C@@]3(C)[C@H](CC[C@@H]4[C@@H]3[C@H](O)C[C@]3(C)[C@@H](C5=CC(=O)OC5)CC[C@]43O)C2)[C@@H]1O | 0.296 µM (active) | 0.0946 µM (active) | 1.67 µM (inactive) | 0.178 µM (active) | 0.531 µM (active) | 0.407 µM (active) | 0.175 µM (active) | 0.283 µM (active) | 0.0304 µM (active) | 0.113 µM (active) | 0.222 µM (active) | 0.056 µM (active) | 0.622 µM (active) | 0.136 µM (active) | 0.692 µM (active) | 0.354 µM (active) | 0.257 µM (active) | 0.187 µM (active) | 0.305 µM (active) | 0.163 µM (active)
3 | CC1=NN(c2ccccc2)C(=O)/C1=C\c1c(C)[nH]n(-c2ccccc2)c1=O | > 100 µM (inactive) | > 100 µM (inactive) | > 100 µM (inactive) | > 100 µM (inactive) | 27.1 µM (inactive) | > 100 µM (inactive) | 38.8 µM (inactive) | > 100 µM (inactive) | > 100 µM (inactive) | > 100 µM (inactive) | > 100 µM (inactive) | 35.1 µM (inactive) | > 100 µM (inactive) | > 100 µM (inactive) | > 100 µM (inactive) | > 100 µM (inactive) | 92.7 µM (inactive) | > 100 µM (inactive) | > 100 µM (inactive) | > 100 µM (inactive)
4 | O=C1Sc2ccc(Br)cc2C(=O)Sc2ccccc21 | 11 µM (inactive) | 11.8 µM (inactive) | 14.5 µM (inactive) | 13 µM (inactive) | 13.5 µM (inactive) | 11.4 µM (inactive) | 12.8 µM (inactive) | 11.4 µM (inactive) | 4.34 µM (inactive) | 15.7 µM (inactive) | 16 µM (inactive) | 4.56 µM (inactive) | 19.5 µM (inactive) | 14.4 µM (inactive) | 13.9 µM (inactive) | 12.5 µM (inactive) | 17.9 µM (inactive) | 17.9 µM (inactive) | 14.5 µM (inactive) | 12.9 µM (inactive)
5 | C/C=C(/C)C(=O)O[C@@H]1CCN2CC[C@H](COC(=O)/C(=C/C)CO)C12 (stereo not given in full) | > 95.3 µM (inactive) | > 100 µM (inactive) | 20.7 µM (inactive) | 48.8 µM (inactive) | 58.2 µM (inactive) | 36.6 µM (inactive) | 11.2 µM (inactive) | 19.6 µM (inactive) | 25.9 µM (inactive) | > 100 µM (inactive) | > 100 µM (inactive) | > 44.9 µM (inactive) | > 75 µM (inactive) | 26.9 µM (inactive) | > 100 µM (inactive) | > 95.3 µM (inactive) | > 100 µM (inactive) | > 100 µM (inactive) | > 100 µM (inactive) | > 87.7 µM (inactive)
6 | C#C[C@]1(O)[C@@H](CO)O[C@@H](n2ccc(N)nc2=O)[C@@H]1O | < 0.0325 µM (active) | < 0.01 µM (active) | < 0.0135 µM (active) | < 0.0435 µM (active) | 0.11 µM (active) | 0.108 µM (active) | < 0.01 µM (active) | 0.107 µM (active) | 0.0101 µM (active) | 0.0902 µM (active) | < 0.0317 µM (active) | 0.0581 µM (active) | 0.0728 µM (active) | 0.0139 µM (active) | 0.0706 µM (active) | 0.0327 µM (active) | < 0.01 µM (active) | 0.0224 µM (active) | 0.0263 µM (active) | 0.0119 µM (active)
7 | Cc1cc(C)nc(NS(=O)(=O)c2ccc(NNc3c4ccccc4nc4c(C(=O)Nc5ccc(S(N)(=O)=O)cc5)cccc34)cc2)n1 | 66.5 µM (inactive) | 42.6 µM (inactive) | 20.1 µM (inactive) | 28.2 µM (inactive) | 17.4 µM (inactive) | 64.1 µM (inactive) | 27.9 µM (inactive) | > 100 µM (inactive) | 17.1 µM (inactive) | 21.2 µM (inactive) | > 100 µM (inactive) | 40.1 µM (inactive) | 25.1 µM (inactive) | 30.5 µM (inactive) | 27.8 µM (inactive) | 18.6 µM (inactive) | 45.3 µM (inactive) | 69.2 µM (inactive) | 14.1 µM (inactive) | 45.7 µM (inactive)
8 | O=C1OC(C2Cc3ccc4c(c3C2=O)CCC4)c2ccccc21 (stereo not given) | 40.7 µM (inactive) | 91.8 µM (inactive) | 37.4 µM (inactive) | 45.6 µM (inactive) | 56.2 µM (inactive) | 36.1 µM (inactive) | 43.3 µM (inactive) | 51.1 µM (inactive) | 30.9 µM (inactive) | 55.2 µM (inactive) | 48.2 µM (inactive) | 37.7 µM (inactive) | 67.1 µM (inactive) | 43.1 µM (inactive) | 52.4 µM (inactive) | 46 µM (inactive) | 54.5 µM (inactive) | > 100 µM (inactive) | 38.8 µM (inactive) | 45.4 µM (inactive)
9 | COC(=O)[C@@H]1C=C[C@H](OC2OC(COC(C)=O)C(OC(C)=O)C(OC(C)=O)C2OC(C)=O)n2c(=O)c3ccccc3c(=O)n21 (stereo not given in full) | 16.1 µM (inactive) | 16.1 µM (inactive) | 16.1 µM (inactive) | 10.9 µM (inactive) | 10.1 µM (inactive) | 27.7 µM (inactive) | 5.66 µM (inactive) | 15.3 µM (inactive) | 11.8 µM (inactive) | 18.6 µM (inactive) | 19.8 µM (inactive) | 6.05 µM (inactive) | 13.2 µM (inactive) | 14.7 µM (inactive) | 19.4 µM (inactive) | 6.71 µM (inactive) | 12.4 µM (inactive) | 2.91 µM (inactive) | 12 µM (inactive) | 14.4 µM (inactive)
10 | O=C1Cc2c(-c3ccccc3)cc(-c3ccc(Cl)cc3)nc2-c2ccccc2N1 | 1.73 µM (inactive) | 16.7 µM (inactive) | 6.07 µM (inactive) | 1.98 µM (inactive) | 2.3 µM (inactive) | 2.88 µM (inactive) | 19 µM (inactive) | 9.95 µM (inactive) | 7.8 µM (inactive) | 4.03 µM (inactive) | 3.14 µM (inactive) | 3.77 µM (inactive) | 2.94 µM (inactive) | 3.65 µM (inactive) | 1.94 µM (inactive) | 2.03 µM (inactive) | 6.7 µM (inactive) | 3.41 µM (inactive) | 1.72 µM (inactive) | 2.05 µM (inactive)
11 | CCCC(=O)NC(Nc1ccc(F)cc1)(C(F)(F)F)C(F)(F)F | > 100 µM (inactive) | 33.2 µM (inactive) | 98.6 µM (inactive) | 19.8 µM (inactive) | > 100 µM (inactive) | > 55 µM (inactive) | 0.1 µM (active) | 0.387 µM (active) | 7.98 µM (inactive) | > 43.4 µM (inactive) | 9.31 µM (inactive) | > 100 µM (inactive) | > 75.2 µM (inactive) | 1.03 µM (active) | > 100 µM (inactive) | > 100 µM (inactive) | 2.84 µM (inactive) | > 43.7 µM (inactive) | > 100 µM (inactive) | 9.48 µM (inactive)
12 | C/C(=N\NC(=[Se])N(C)C)c1ccccn1 | 0.0559 µM (active) | 1.41 µM (inactive) | 0.459 µM (active) | < 0.01 µM (active) | 1.09 µM (active) | 0.208 µM (active) | < 0.01 µM (active) | 0.0158 µM (active) | < 0.01 µM (active) | < 0.01 µM (active) | < 0.01 µM (active) | 0.455 µM (active) | 1.91 µM (inactive) | 0.0263 µM (active) | 1.37 µM (inactive) | 0.462 µM (active) | < 0.01 µM (active) | 1.87 µM (inactive) | < 0.01 µM (active) | 0.457 µM (active)
13 | c1ccc2[nH]c3nc4ccccc4c-3cc2c1 | 0.0199 µM (active) | 1.26 µM (inactive) | 0.757 µM (active) | < 0.0311 µM (active) | 7.26 µM (inactive) | 0.966 µM (active) | 0.189 µM (active) | 0.536 µM (active) | 0.0942 µM (active) | 0.615 µM (active) | 1.28 µM (inactive) | 0.457 µM (active) | 1.31 µM (inactive) | 0.698 µM (active) | 0.785 µM (active) | 2.1 µM (inactive) | 0.156 µM (active) | 1.54 µM (inactive) | 0.454 µM (active) | 0.597 µM (active)
14 | CCc1nc(N)nc(N)c1-c1ccc(Cc2ccccc2)c([N+](=O)[O-])c1 | < 0.01 µM (active) | 0.0585 µM (active) | 0.151 µM (active) | < 0.01 µM (active) | 1.17 µM (inactive) | 12.3 µM (inactive) | < 0.01 µM (active) | 0.0144 µM (active) | < 0.0127 µM (active) | 0.0171 µM (active) | 0.0475 µM (active) | 24.5 µM (inactive) | > 39.5 µM (inactive) | < 0.01 µM (active) | 1.51 µM (inactive) | 23.3 µM (inactive) | < 0.01 µM (active) | 29.5 µM (inactive) | < 0.0178 µM (active) | 0.124 µM (active)
